The values that follow come from patent publication US20100316585A1, “Use of Magnesium Stearate Dihydrate for Lubrication of Solid Industrial or Consumer Products” (priority 2008, published 2010).

Data set [1] can be described thus: Particle-size distribution by laser diffraction. In kind it is physicochemical. Conditions: neat MgSt hydrate. On the procedure: Particle-size distributions were determined using a laser diffraction system (series 2600, Malvern Instruments Ltd., Malvern, UK) equipped with a 63-mm lens (size range of 1.2-118 μm) and a stirred cell.
A short description of data set [2]: Percent water (free and bound) of neat MgSt hydrates. In kind it is physicochemical. Conditions: neat MgSt hydrate. On the procedure:
Thermal gravimetric analysis (Q50 TGA, TA Instruments) was carried out from 25 to 190° C. at a heating rate of 5° C./min. Data acquisition and analysis were conducted using TA Instruments software. FIG. 4 presents the TGA of MgSt-M and MgSt-D.

In the case of “magnesium stearate [MgSt-M, reference compound]”, the “Particle size (nominal mean particle size)” value in data set [1] is reported as 10.6 μm. In addition, in data set [2], the Dihydrate water is on record as 0%, the Free water was determined as 0.6%, the Monohydrate water is 2.8% and the percent bound moisture is recorded as 2.8%.

As for magnesium stearate dihydrate [MgSt-D], the “Particle size (nominal mean particle size)” value in data set [1] is reported as 14.3 μm. In data set [2], this substance showed a Dihydrate water of 5.6%, a Monohydrate water of 0% and a percent bound moisture of 5.6%. For the same substance, in data set [2] (dihydrate), the Free water result is on record as “little or no free water”. In data set [2] (listed as MqSt-D, dihydrate), this substance returned a Free water of 0%.
